# Reference: ChEMBL document CHEMBL1201862, “PubChem BioAssay data set” (2004)
# Active and inactive are the calls of the source.
# Key:
# [1] = molecular target: Melanin-concentrating hormone receptor 1 (Homo sapiens, UniProt Q99705); test: Fluorescence-based counterscreen for antagonists of the G-protein coupled receptor 7 (GPR7): cell-based high throughput dose response assay to identify antagonists of the melanin-concentrating hormone receptor 1 (MCHR1).; type: functional
# [2] = molecular target: T1, Neuropeptides B/W receptor type 1 (Homo sapiens, UniProt P48145); test: Fluorescence-based dose response cell-based high throughput screening assay to identify antagonists of the G-protein coupled receptor 7 (GPR7). [Related pubchem assays: 1952 (Screening assay (GPR7 antagonists).), 1880 (Summary AID.)]; type: functional
# T1 sequence (P48145 whole entry): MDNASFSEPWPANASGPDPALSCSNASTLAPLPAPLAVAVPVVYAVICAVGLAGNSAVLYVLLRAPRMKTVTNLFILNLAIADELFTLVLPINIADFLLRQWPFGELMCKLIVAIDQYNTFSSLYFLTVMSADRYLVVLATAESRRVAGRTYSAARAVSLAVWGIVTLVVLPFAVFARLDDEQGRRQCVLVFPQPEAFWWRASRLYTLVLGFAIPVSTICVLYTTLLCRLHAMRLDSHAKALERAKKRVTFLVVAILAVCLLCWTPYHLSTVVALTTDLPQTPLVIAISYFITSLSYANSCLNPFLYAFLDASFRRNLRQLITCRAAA
# [3] = molecular target: Neurotensin receptor type 1 (Homo sapiens, UniProt P30989); type: functional;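 further: Image-based confirmatory dose-response assay measuring agonist activity at NTR1; NTR1-expressing U2OS osteosarcoma cells imaged for beta-arrestin GFP spot formation; agonist potency where compounds increase beta-arrestin recruitment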
# [4] = system: Streptococcus sp. 'group A'; test: growth inhibition of control SK(-) GAS strain, dose response, counter-screen for streptokinase expression inhibitor project, luminescence, kanamycin, BacTiterGlo, confirmation (AID 1900); type: functional, organism-based
# [5] = system: Streptococcus; test: Group A Streptococcus viability loss, dose response, counter-screen for streptokinase expression inhibitor project, luminescence, BacTiterGlo (AID 1915); type: functional, organism-based;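 further: potency for reduction of bacterial viability or growth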
# [6] = molecular target: T2, Neuropeptide Y receptor type 2 (Homo sapiens, UniProt P49146); type: functional, cell-based;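 further: HEK293 cells expressing the receptor and a CNG channel; stimulus was NPY near EC95 followed by isoproterenol to raise cAMP; antagonist potency measured as restoring cAMP signal that NPY suppresses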
# T2 sequence (P49146 whole entry): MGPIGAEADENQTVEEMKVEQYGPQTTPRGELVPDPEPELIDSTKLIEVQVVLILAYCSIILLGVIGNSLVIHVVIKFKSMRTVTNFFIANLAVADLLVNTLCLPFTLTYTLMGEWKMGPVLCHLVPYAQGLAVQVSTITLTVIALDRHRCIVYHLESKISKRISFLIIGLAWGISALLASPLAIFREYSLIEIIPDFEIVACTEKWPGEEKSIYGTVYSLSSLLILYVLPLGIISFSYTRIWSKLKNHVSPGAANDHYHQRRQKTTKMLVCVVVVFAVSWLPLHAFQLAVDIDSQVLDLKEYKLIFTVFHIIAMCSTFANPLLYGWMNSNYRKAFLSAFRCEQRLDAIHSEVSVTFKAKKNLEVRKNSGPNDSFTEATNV
# [7] = microbe, parasite or virus in culture; type: functional; details: Mycobacterium tuberculosis
# [8] = molecular target: T3, Neuropeptide Y receptor type 1 (Homo sapiens, UniProt P25929); type: functional;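 further: HEK293 cells with a CNG channel challenged with NPY then isoproterenol; potency as antagonist that reverses NPY suppression of cAMP signal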
# T3 sequence (P25929 whole entry): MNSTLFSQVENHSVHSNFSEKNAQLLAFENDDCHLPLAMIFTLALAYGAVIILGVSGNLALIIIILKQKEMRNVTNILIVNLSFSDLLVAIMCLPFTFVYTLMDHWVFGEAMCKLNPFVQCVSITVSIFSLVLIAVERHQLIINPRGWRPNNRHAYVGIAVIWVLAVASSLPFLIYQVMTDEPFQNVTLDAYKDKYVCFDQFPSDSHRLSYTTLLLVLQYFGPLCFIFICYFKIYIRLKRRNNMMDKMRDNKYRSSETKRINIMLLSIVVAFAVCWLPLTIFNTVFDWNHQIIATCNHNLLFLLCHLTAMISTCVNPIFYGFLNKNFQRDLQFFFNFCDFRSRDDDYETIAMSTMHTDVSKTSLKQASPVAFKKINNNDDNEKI
# [9] = molecular target: T4, Streptokinase A (Streptococcus pyogenes serotype M1, UniProt P10520); test: S. pyogenes streptokinase expression inhibitors, potency, dose response, plasminogen activation absorbance, OD405 (AID 1914); type: functional, Streptococcus pyogenes M1 GAS;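 further: secreted streptokinase activity via plasminogen activation per viability signal from cell pellet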
# T4 sequence (P10520 whole entry): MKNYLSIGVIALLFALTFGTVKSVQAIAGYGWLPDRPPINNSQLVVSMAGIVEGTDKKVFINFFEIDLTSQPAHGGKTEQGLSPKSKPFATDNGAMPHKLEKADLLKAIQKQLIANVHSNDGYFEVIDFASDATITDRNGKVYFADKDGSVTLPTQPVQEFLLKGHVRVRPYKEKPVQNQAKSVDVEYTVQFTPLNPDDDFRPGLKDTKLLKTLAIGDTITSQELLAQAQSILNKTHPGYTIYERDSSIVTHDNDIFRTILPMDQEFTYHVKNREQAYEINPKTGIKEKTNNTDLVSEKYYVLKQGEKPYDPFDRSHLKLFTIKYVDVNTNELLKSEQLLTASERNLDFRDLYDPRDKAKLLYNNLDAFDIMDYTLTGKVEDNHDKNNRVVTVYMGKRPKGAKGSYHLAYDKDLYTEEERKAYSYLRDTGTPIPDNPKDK
# [10] = molecular target: T5, Mucolipin-3 (Homo sapiens, UniProt Q8TDD5); test: Dose response cell-based high-throughput screening assay for agonists of the transient receptor potential channel ML3 (TRPML3). [Related pubchem assays: 1526, 1424, 1448 ]; type: functional
# T5 sequence (Q8TDD5 whole entry): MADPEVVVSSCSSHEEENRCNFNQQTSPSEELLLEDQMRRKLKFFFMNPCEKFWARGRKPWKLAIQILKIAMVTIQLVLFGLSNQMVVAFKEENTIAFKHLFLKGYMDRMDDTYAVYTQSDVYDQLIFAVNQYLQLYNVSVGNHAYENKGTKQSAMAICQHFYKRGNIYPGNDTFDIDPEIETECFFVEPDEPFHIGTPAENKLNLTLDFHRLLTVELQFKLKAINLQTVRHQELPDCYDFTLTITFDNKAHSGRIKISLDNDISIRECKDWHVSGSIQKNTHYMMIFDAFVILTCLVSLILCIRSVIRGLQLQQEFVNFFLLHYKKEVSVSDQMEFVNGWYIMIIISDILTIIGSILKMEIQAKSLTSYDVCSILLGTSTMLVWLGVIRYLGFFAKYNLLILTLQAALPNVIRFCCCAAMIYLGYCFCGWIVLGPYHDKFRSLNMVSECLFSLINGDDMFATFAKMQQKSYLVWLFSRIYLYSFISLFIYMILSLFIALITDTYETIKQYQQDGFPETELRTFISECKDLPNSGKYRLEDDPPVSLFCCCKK
# [11] = molecular target: Ion channel NompC (Danio rerio, UniProt Q7T1G6); test: Fluorescence counterscreen assay for TRPML3 agonists: dose response cell-based high-throughput screening assay to identify agonists of the transient receptor potential channel N1 (TRPN1). [Related pubchem assays: 1526, 1424, 1448 ]; type: functional
# Chain of Ion channel NompC (Q7T1G6 whole entry): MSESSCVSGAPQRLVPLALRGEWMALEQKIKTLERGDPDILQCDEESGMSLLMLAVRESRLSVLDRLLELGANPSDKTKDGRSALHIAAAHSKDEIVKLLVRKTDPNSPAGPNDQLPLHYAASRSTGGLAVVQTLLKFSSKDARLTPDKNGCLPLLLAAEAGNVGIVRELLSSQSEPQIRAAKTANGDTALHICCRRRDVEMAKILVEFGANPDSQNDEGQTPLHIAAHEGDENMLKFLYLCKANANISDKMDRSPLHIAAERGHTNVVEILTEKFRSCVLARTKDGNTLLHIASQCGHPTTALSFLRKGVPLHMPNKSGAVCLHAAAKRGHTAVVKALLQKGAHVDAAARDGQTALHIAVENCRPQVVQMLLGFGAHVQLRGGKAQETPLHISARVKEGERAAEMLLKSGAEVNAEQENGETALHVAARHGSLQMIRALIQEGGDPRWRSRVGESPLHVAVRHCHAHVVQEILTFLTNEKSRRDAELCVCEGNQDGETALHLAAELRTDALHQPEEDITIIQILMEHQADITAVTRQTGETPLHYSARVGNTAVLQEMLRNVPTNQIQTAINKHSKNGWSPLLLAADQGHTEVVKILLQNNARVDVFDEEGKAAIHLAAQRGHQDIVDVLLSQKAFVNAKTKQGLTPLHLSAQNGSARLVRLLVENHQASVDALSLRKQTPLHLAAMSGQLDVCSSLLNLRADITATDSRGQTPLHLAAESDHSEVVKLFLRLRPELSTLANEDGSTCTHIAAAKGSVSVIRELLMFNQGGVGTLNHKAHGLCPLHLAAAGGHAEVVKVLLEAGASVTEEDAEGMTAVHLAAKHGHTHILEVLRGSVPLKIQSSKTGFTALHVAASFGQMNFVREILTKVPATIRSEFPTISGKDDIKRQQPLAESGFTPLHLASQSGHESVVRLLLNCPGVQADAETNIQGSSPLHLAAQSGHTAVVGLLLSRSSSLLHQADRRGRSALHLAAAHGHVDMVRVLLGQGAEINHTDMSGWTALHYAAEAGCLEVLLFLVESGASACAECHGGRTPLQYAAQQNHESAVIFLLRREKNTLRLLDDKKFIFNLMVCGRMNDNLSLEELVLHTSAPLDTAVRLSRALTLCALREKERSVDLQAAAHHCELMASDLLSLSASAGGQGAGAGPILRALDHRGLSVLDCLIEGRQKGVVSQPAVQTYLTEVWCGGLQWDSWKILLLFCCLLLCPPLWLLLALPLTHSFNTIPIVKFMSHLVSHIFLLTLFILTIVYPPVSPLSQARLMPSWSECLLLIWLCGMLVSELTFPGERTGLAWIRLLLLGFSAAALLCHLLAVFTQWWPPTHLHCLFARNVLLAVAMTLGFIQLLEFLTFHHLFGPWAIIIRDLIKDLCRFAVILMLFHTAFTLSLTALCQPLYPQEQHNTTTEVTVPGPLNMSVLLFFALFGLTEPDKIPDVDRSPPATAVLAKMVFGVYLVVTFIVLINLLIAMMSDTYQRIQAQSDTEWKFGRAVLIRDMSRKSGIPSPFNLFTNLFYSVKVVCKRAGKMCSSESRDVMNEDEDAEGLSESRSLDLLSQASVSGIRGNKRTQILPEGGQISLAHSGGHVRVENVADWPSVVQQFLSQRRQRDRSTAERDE
# [12] = molecular target: Peroxisome proliferator-activated receptor gamma/Nuclear receptor corepressor 2 (Homo sapiens, UniProt P37231+Q9Y618); type: functional
# Chain of Peroxisome proliferator-activated receptor gamma/Nuclear receptor corepressor 2 (P37231 whole entry): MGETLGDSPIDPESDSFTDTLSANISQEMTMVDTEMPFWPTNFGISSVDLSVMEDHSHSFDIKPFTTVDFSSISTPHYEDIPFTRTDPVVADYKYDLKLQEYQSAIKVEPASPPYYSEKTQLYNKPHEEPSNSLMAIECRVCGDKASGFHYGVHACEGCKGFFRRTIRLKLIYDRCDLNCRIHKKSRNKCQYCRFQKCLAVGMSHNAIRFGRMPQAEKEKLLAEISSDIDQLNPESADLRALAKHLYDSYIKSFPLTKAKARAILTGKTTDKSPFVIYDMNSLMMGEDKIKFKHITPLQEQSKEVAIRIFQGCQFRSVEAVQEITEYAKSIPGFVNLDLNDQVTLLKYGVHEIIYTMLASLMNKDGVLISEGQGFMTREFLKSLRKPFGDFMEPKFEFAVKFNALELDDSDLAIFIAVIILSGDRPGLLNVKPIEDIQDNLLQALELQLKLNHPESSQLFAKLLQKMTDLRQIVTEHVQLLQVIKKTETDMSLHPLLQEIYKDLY
# Chain of Peroxisome proliferator-activated receptor gamma/Nuclear receptor corepressor 2 (Q9Y618 whole entry): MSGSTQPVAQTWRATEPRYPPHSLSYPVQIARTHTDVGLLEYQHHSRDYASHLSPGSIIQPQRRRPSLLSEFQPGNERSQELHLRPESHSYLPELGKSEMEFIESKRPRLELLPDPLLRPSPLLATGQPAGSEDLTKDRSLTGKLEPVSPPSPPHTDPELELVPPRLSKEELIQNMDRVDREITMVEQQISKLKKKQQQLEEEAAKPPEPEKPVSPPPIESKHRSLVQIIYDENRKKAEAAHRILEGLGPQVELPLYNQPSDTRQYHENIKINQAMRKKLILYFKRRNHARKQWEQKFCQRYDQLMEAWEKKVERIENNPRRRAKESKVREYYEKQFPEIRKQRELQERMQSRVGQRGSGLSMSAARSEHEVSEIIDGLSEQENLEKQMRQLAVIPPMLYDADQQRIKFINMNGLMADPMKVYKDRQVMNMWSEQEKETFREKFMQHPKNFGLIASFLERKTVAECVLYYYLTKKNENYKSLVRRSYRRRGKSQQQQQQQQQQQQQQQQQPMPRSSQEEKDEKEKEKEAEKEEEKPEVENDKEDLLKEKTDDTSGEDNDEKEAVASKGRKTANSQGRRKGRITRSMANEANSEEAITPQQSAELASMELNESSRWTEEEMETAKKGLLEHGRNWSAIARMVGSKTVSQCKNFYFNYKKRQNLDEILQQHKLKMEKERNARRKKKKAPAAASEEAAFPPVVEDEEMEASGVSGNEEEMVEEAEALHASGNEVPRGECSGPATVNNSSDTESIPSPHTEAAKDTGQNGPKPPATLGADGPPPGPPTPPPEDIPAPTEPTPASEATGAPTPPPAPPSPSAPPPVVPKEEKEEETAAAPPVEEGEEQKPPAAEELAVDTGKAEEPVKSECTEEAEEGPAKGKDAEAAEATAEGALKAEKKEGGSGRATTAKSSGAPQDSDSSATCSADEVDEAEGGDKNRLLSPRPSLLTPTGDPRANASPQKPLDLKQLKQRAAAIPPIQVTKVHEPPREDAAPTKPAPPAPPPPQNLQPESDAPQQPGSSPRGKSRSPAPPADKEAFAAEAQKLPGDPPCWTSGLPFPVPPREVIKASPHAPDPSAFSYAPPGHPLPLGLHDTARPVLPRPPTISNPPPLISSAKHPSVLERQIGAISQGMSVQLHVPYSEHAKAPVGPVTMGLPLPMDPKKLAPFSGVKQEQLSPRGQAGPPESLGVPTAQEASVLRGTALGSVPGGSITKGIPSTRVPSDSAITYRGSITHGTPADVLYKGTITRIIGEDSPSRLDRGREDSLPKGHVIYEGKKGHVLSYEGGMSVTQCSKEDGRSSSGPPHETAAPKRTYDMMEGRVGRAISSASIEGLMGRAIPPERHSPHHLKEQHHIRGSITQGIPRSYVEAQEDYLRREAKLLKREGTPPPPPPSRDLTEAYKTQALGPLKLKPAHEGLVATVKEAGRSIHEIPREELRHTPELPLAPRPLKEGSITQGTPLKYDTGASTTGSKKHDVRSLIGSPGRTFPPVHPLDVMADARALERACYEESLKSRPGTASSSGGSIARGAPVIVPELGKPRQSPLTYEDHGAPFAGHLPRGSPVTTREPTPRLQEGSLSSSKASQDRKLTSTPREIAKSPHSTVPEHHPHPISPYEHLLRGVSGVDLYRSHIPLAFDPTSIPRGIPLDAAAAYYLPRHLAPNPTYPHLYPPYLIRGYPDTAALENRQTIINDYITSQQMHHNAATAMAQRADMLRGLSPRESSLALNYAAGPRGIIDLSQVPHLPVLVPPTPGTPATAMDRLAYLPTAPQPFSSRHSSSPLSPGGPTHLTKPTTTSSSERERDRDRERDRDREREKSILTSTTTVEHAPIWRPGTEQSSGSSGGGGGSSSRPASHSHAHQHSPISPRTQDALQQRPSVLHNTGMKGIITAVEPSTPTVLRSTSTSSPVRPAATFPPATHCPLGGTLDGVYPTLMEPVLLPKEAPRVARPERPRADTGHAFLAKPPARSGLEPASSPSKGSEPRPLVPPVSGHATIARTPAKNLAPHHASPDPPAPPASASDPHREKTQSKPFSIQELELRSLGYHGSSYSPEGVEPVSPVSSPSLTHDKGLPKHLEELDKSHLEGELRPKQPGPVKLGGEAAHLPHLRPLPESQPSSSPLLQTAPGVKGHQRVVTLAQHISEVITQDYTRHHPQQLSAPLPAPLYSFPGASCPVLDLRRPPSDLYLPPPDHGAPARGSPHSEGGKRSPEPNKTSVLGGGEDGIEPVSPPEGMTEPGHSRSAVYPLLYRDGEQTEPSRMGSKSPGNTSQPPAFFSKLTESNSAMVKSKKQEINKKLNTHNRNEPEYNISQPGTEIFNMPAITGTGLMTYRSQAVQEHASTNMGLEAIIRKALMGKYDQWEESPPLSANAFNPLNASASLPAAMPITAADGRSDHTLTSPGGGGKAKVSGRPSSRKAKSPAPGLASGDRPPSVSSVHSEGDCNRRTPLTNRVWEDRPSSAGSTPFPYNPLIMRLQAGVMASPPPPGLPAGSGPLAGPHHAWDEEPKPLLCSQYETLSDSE
# [13] = molecular target: Photoreceptor-specific nuclear receptor (Homo sapiens, UniProt Q9Y5X4); type: functional;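 further: potency for compounds that break the NR2E3 corepressor complex and count as activators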
# Chain of Photoreceptor-specific nuclear receptor (Q9Y5X4 whole entry, the tested form may be a part): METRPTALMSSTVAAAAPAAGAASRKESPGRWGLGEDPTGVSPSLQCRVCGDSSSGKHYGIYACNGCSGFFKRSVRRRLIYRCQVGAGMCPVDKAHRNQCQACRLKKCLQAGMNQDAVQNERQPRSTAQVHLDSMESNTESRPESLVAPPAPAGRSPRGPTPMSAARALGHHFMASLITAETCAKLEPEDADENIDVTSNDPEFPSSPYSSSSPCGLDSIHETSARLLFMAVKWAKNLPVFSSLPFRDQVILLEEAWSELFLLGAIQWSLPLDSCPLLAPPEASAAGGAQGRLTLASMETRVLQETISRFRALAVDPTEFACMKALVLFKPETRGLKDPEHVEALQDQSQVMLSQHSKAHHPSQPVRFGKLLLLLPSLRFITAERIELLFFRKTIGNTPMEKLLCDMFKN
# [14] = molecular target: NACHT, LRR and PYD domains-containing protein 3 (Homo sapiens, UniProt Q96P20); test: NALP3 inhibitors in yeast, dose response, luminescent (AID 488799); type: functional
# [15] = molecular target: Nonstructural protein 1 (Influenza A virus, UniProt Q194T2); type: functional, Influenza A virus (A/California/07/2009(H1N1))
# [16] = molecular target: T6, Corticotropin-releasing factor receptor 2/Corticotropin-releasing factor-binding protein (Homo sapiens, UniProt P24387+Q13324); test: activators of CRF receptor 2 with binding protein – uHTS hits, confirmation (AID 602473); type: functional; details: read-out: EC50_Mean
# T6 sequence (Q13324 whole entry): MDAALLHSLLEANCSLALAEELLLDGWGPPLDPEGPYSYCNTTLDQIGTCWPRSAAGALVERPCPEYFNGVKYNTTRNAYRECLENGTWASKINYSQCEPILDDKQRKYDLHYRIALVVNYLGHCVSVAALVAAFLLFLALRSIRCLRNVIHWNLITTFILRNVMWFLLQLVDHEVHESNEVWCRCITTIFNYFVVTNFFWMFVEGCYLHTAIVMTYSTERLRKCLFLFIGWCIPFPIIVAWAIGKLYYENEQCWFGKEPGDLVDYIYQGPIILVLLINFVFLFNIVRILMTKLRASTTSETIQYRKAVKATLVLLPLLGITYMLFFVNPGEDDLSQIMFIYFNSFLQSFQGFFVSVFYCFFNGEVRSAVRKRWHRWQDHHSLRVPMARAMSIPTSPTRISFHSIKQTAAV
# T6 sequence (P24387 whole entry): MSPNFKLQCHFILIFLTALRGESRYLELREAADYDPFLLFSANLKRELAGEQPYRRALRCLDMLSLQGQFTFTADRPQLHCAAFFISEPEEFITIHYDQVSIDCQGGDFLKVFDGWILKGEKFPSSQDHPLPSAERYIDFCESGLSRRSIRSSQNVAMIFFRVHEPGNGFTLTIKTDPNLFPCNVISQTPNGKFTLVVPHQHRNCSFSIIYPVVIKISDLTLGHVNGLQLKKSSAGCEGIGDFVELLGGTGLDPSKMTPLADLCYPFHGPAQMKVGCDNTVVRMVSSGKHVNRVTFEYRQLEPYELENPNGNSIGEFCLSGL
# [17] = molecular target: T6, Corticotropin-releasing factor receptor 2/Corticotropin-releasing factor-binding protein; test: Dose Response confirmation of uHTS hits for small molecule antagonists of the CRF-binding protein and CRF-R2 receptor complex.; type: functional; details: read-out: IC50_Mean
# [18] = CRF-BP/CRF-R2 complex antagonists, dose response, cell-based, uHTS hits, 384-well (AID 651639); type: functional, Homo sapiens; details: read-out: IC50_Mean
# [19] = molecular target: T7, Zinc finger protein mex-5 (Caenorhabditis elegans, UniProt Q9XUB2); test: MEX-5/TCR-2 RNA interaction inhibitors, dose response, biochemical, C. elegans, fluorescence polarization (AID 1960)
# T7 sequence (Q9XUB2 whole entry): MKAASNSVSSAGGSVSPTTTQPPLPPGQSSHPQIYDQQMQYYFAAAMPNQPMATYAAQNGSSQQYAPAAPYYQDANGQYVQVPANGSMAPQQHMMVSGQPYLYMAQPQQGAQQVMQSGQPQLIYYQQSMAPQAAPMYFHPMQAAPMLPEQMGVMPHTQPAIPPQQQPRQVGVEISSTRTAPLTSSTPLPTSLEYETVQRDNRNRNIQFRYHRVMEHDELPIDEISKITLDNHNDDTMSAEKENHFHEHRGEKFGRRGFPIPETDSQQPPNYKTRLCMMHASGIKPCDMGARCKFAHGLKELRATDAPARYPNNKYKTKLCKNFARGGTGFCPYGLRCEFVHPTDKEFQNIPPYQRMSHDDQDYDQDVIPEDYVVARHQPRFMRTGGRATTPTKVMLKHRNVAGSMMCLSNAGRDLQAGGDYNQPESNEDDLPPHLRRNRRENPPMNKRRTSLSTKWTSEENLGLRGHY
# [20] = molecular target: T8, RNA-binding protein pos-1 (Caenorhabditis elegans, UniProt G5EF15); test: inhibitors of POS-1/mex-3 RNA binding, dose response, biochemical, fluorescence polarization (AID 1964);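 further: purified POS-1 fused to maltose binding protein made in E. coli; potency of compounds blocking POS-1 binding to fluorescent RNA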
# T8 sequence (G5EF15 whole entry): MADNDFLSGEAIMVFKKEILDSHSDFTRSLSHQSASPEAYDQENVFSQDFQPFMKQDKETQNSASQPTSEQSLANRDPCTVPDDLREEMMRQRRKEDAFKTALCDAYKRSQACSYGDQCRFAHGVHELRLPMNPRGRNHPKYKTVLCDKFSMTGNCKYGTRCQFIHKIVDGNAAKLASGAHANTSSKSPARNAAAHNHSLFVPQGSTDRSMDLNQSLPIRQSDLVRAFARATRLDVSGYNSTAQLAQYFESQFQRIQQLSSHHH
# [21] = system: HT-1080; test: cytotoxicity in HT1080 fibrosarcoma cells, cell-based, fluorescence readout (AID 620); type: functional; details: Homo sapiens
# [22] = system: HEK293; test: inhibitors of LMP1-driven NF-kB reporter, dose response, cell-based, HEK293, luciferase, cherry-pick (AID 588343); type: functional; details: Homo sapiens
# [23] = cytotoxicity in HEK-293T cells, dose response, cytotoxicity control for BCR NF-kB inhibitor project, luminescence, B-cell screen hits (AID 489021); type: functional, cell-based;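 further: HEK-293T cells carrying an NF-kB luciferase reporter; cells exposed to compound for about 14 hours before viability readout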
# [24] = molecular target: Luciferin 4-monooxygenase (Photinus pyralis, UniProt P08659); test: Counter Screen for Luciferase-based Assay Positives. [Related pubchem assays: 620, 618, 411 ]
structure (smiles),measurement,setting,value
CCCCN(C)C(=O)c1nc2ccccn2c1CN1CCN(C/C=C/c2ccccc2)CC1,IC50,[1],16.6 µM (not active)
same,IC50,[2],> 43.8 µM (not active)
O=C(Nc1ccc2oc(-c3ccccc3F)nc2c1)c1ccc2c(c1)OCCO2,EC50,[3],31.1 µM (inactive)
Oc1cccc(-c2nc3ccc4ccccc4c3c3c2CCC3)c1,EC50,[4],10 µM (active)
same,EC50,[5],53.6 µM (active)
same,IC50,[6],5.22 µM (active)
same,CC50,[7],> 40 µM (active)
same,IC50,[8],7.68 µM (active)
same,EC50,[9],27.8 µM (active)
O=C(Cc1ccc(Cl)c(Cl)c1)Nc1ccccc1N1CCOCC1,EC50,[10],2.89 µM (active)
same,EC50,[11],13.4 µM (not active)
O=C(C1=C(O)C(=O)N(CCN2CCOCC2)C1c1cccs1)c1cc2ccccc2o1 (stereo unspecified),IC50,[12],6.71 µM (active)
same,IC50,[13],> 39.8 µM (not active)
O=C(Nc1cccc(Cl)c1)c1cc(N=Nc2ccc([N+](=O)[O-])cc2Cl)ccc1O,IC50,[14],1.34 µM (active)
same,IC50,[15],22.1 µM (active)
COC(=O)c1ccc(CSc2nc3ccccc3c(=O)n2-c2ccccc2)o1,IC50,[6],3.14 µM (active)
same,EC50,[16],> 53 µM (inactive)
same,IC50,[8],5.21 µM (active)
same,IC50,[17],0.858 µM (active)
same,IC50,[18],13.6 µM (active)
CC(=O)Nc1ccc(NC(=O)C(C)OC(=O)/C(C#N)=C/c2ccc(N(C)C)cc2)cc1 (stereo unspecified),EC50,[19],86.3 µM (inconclusive)
same,EC50,[20],26.9 µM (active)
same,IC50,[12],> 39.8 µM (not active)
same,IC50,[13],> 39.8 µM (not active)
CCc1ccc(-c2nnn(CCC(=O)OC)n2)cc1,EC50,[21],> 50 µM (not active)
same,AC50,[22],16.2 µM (active)
same,IC50,[23],> 80 µM (inactive)
same,EC50,[24],5.58 µM (active)
CCn1c(=O)cc(OCC(=O)N(C)C2CCCCC2)c2ccccc21,IC50,[23],> 80 µM (inactive)
Cc1ccc(N(C)S(=O)(=O)c2ccc(C)cc2)cc1,EC50,[10],5.1 µM (active)
same,EC50,[11],> 29.9 µM (not active)
